Read-outs that look alike come from different tables or passages of the source. Where no end group is shown, it is not given here.
Experiments:
[1] = system: Schwann cells (rat sciatic nerve); type: cell-based; settings: for attenuation (desensitization) of cAMP response with time: Schwann cells, even in the presence of IBMX
[2] = system: Schwann cells (rat sciatic nerve); type: cell-based; settings: for BrdU incorporation compared with forskolin: agent alone, without PDGF, pulsatile regime; for doubling time / cells synthesizing DNA in 24 h: in the presence of PDGF; for doubling time: estimated from cells synthesizing DNA; for cells synthesizing DNA in 24 h: increased from 10%, Discussion
[3] = system: cultured Schwann cells; settings: ref Yasuda et al., 1988; cited from earlier work
[4] = system: Schwann cells (rat sciatic nerve); type: cell-based; settings: for doubling time: estimated from BrdU incorporation
[5] = system: sciatic nerve fibroblasts; experiment: Proliferation of sciatic nerve fibroblasts induced by PDGF; type: cell-based, rat; settings: Kahn and Mudge, unpublished results
[6] = system: Schwann cells; settings: cited from earlier work; for promotion of Schwann cell proliferation: rat sciatic nerve Schwann cells in culture, ref Eccleston, 1992, Ratner et al., 1988
[7] = system: PDGF receptor; settings: ref Weinmaster and Lemke, 1990, cited from earlier work
[8] = system: erbB2 receptor; settings: Schwann cells; ref Weinmaster and Lemke (1990), Mudge, 1993 (review); cited from earlier work
[9] = system: sciatic nerve fibroblasts; experiment: Intracellular cAMP accumulation in sciatic nerve fibroblasts; type: cell-based, rat; settings: for dependence of cAMP effect on culture age: with IBMX, 2 d versus 7 d cultures, Fig. 2
[10] = system: macrophages; settings: ref Wiik, 1989; Vignery et al., 1991; cited from earlier work
[11] = system: neutral endopeptidase 24.11; settings: ref Davies et al., 1992; Turner, A. J., personal communication; cited from earlier work
[12] = with 10 ng/ml PDGF-BB, pulsatile, Fig. 6 b
[13] = cultured Schwann cells, ref Raff et al., 1978a,b, Ridley et al., 1989, Davis and Stroobant, 1990, Weinmaster and Lemke, Chen et al., 1991, Stewart et al., Goodearl et al., 1993, Marchionni et al.

CC(C)NCC(O)c1ccc(O)c(O)c1 (stereo not shown) [isoproterenol]
dependence of cAMP response on culture age ([1]; 3-d versus 8-d cells, 5 min, Fig. 1): more pronounced in 8-d cells
attenuation (desensitization) of cAMP response with time ([1]; Fig. 4 a): declined with time in similar fashion to the CGRP response
BrdU incorporation compared with forskolin ([2]; Fig. 6 b): comparable to the effect of forskolin
doubling time ([2]; pulsatile): ~ 4 d
cells synthesizing DNA in 24 h ([2]; pulsatile): ~25%
type of interaction with PDGF [2, 12]: simply additive
plateau of cAMP effect [3]: did not plateau even at 10-4 M

C=C[C@@]1(C)CC(=O)[C@]2(O)[C@@]3(C)[C@@H](O)CCC(C)(C)[C@@H]3[C@H](O)[C@H](OC(C)=O)[C@@]2(C)O1 [forskolin]
doubling time ([4]; 1 µM forskolin with PDGF, continuous): ~ 2 d
Schwann cells incorporating BrdU in 24 h ([4]; 1 µM forskolin with PDGF, continuous, range in at least 10 different experiments): 40-60%
increase in BrdU incorporation, together with PDGF ([2]; fold, with 10 ng/ml PDGF-BB, pulsatile, every 3 h with 3-h wash-out, Fig. 6 b): eightfold
type of interaction with PDGF [2, 12]: synergistic
effect on PDGF-induced proliferation of fibroblasts [5]: inhibits the proliferation of sciatic nerve fibroblasts induced by PDGF
DNA synthesis ([6]; 1 µM forskolin and PDGF, ref Stewart et al., 1991): no DNA synthesis
cells incorporating BrdU in 24 h ([6]; PDGF and 10 µM forskolin, ref Stewart et al., 1991): 6%
potentiation of response to growth factors [6, 13]: greatly potentiated
synthesis of PDGF beta receptor [7]: increased synthesis
treatment time required to increase PDGF beta receptor mRNA [7]: 12 to 24 h
effect of a single 3-h pulse on PDGF beta receptor mRNA ([7]; single 3-h pulse): ineffective
erbB2 receptor expression [8]: upregulated

cholera toxin
potentiation of response to growth factors [6]: greatly potentiated

vasoactive intestinal peptide (HSDAVFTDNYTRLRKQMAVKKYLNSILN; ends and bridges not checked; UniProt P01282 125-152, looked up) [VIP]
dependence of cAMP effect on culture age [9]: only seen in the older cultures
cAMP in macrophages [10]: increase cAMP levels in macrophages
plateau of cAMP effect [3]: did not plateau even at 10-4 M

peptide histidine-isoleucine [PHI]
dependence of cAMP effect on culture age [9]: only seen in the older cultures

calcitonin gene-related peptide [CGRP]
desensitization at lower dose ([1]; 10^-8 M CGRP): desensitization was reduced with this dose
magnitude of cAMP response ([1]; 5 min with 5 x 10^-8 M CGRP without IBMX, Discussion): 8-10 fold
attenuation (desensitization) of cAMP response with time ([1]; Fig. 4 a): declined rapidly, even in the presence of IBMX
cAMP over basal after 1 h ([1]; maximal dose of CGRP, declined even in the presence of IBMX, Fig. 4 a): twofold
increase in cAMP over basal after 5 min ([1]; maximal dose of CGRP, without IBMX, high density, 4 d in defined medium, Fig. 4 a): eightfold
activity of CGRP after 3 h incubation with Schwann cells ([1]; medium from Schwann cells incubated with CGRP for 3 h transferred to fresh cultures, 5 min, Fig. 5): a comparable stimulation of cAMP
attenuation of cAMP response ([9]; compared with Schwann cells, 5 x 10-s M CGRP (so in the source), 200 µM IBMX, Fig. 4 b): even more rapid
BrdU incorporation compared with forskolin ([2]; Fig. 6 b): comparable to the effect of forskolin
doubling time ([2]; pulsatile): ~ 4 d
cells synthesizing DNA in 24 h ([2]; pulsatile): ~25%
type of interaction with PDGF [2, 12]: synergistic
effect together with PDGF compared with forskolin and PDGF ([2]; with PDGF, pulsatile, Fig. 6 b): as effective as forskolin and PDGF
cAMP in macrophages [10]: increase cAMP levels in macrophages
substrate of neutral endopeptidase 24.11 [11]: very good substrate

glial growth factor [GGF]
promotion of Schwann cell proliferation [6]: promote the proliferation
mitogenicity without forskolin / enhancement of GGF effect ([6]; ref Davis and Stroobant, 1990, Goodearl et al., 1993, Marchionni et al.): is a mitogen without forskolin

FGF-2: growth factor, literature mitogen
promotion of Schwann cell proliferation [6]: promote the proliferation

FGF-1: growth factor, literature mitogen
promotion of Schwann cell proliferation [6]: promote the proliferation

CCCC(=O)Nc1ncnc2c1ncn2[C@@H]1O[C@@H]2COP(=O)(O)O[C@H]2[C@H]1OC(=O)CCC [dibutyryl cAMP]
potentiation of response to growth factors [6, 13]: greatly potentiated

B1: PDGF: Recombinant human PDGF-BB purchased from R&D Systems (protein, UniProt P01127 82-190, looked up)
Platelet-derived growth …: SLGSLTIAEPAMIAECKTRTEVFEISRRLIDRTNANFLVWPPCVEVQRCSGCCNNRNVQCRPTQVQLRPVQVRKIEIVRKKPIFKKATVTLEDHLACKCETVAAARPVT
doubling time ([4]; PDGF alone): 10 days
Schwann cells incorporating BrdU in 24 h ([4]; defined medium with PDGF alone (before forskolin), Discussion): 10%
promotion of Schwann cell proliferation [6]: promote the proliferation
